Here are results for 81 compounds from PubChem BioAssay AID1645863 (Buhrlage Lab, Dana-Farber Cancer Institute and Novartis …, 2021).

The structures appear in SMILES notation. Activity calls are given as the source filed them. No rule for the calls is given here. Bounds are passed on as bounds.

Ubiquitin carboxyl-terminal hydrolase 10 (Homo sapiens), sequence (Q14694 whole entry, looked up): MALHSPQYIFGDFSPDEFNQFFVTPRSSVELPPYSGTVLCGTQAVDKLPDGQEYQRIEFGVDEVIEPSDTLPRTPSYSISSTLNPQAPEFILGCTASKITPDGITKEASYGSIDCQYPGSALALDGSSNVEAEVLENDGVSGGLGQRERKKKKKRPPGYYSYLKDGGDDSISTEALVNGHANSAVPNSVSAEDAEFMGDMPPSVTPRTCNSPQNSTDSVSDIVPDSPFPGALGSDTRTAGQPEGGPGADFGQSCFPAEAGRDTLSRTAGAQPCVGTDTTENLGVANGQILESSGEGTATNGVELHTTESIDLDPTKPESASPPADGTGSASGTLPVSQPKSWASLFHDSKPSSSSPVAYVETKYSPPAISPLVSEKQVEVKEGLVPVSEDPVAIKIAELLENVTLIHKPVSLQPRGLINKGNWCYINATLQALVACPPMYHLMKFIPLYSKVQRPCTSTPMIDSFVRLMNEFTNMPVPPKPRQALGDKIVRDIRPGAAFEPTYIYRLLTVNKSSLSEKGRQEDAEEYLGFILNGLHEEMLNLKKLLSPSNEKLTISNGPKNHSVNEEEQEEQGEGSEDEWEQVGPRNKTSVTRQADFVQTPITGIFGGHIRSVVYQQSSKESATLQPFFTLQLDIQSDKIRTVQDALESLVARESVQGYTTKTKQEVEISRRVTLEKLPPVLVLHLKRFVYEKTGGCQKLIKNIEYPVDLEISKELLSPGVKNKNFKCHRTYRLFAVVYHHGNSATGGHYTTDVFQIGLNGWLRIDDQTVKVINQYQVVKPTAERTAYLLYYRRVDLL

The experiment has as its target Ubiquitin carboxyl-terminal hydrolase 10 (Homo sapiens) (UniProt Q14694). Put plainly: ubiquitin-specific protease 10 DUB inhibitors, concentration-effect, biochemical, verification of primary screen actives (AID 1645863).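 Also: potency values describe inhibition of USP10 cleavage of a fluorogenic ubiquitin substrate.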 The conditions noted are these: USP10 deubiquitinase enzymatic assay.
`O=C(Nc1ccncc1)c1cn(Cc2ccccc2)cc2c(=O)n(-c3ccccc3)nc1-2`: the IC50 was > 40 µM (inactive).

`Cc1ccc(Cl)cc1NC(=O)Cn1c(=O)n(CCC(=O)NCc2ccco2)c(=O)c2ccccc21`: the IC50 is 13.1 µM.

In the case of `CCC1OC(O)(C(C)C(O)C(C)C2OC(=O)/C(C)=C/C(C)=CC(C)C(O)C(C)C/C(C)=C/C=C/C2OC)CC(OC(=O)/C=C/C(=O)NC2=C(O)CCC2=O)C1C` (stereo unspecified), the IC50 is 16.6 µM.

With `Cc1cc(C)c(NC(=O)CSc2nc3nccnc3c(=O)n2Cc2ccccc2Cl)c(C)c1`, the IC50 is > 40 µM (inactive).

Take `O=S1(=O)CCN(Cc2cccnc2)c2c(F)nc(N3CCOCC3)c(F)c21`: the IC50 was > 40 µM (inactive).

Turning to `O=S(=O)(Nc1cccc(O)c1)c1ccc2oc3ccc(S(=O)(=O)Nc4cccc(O)c4)cc3c2c1`, the IC50 is 14.4 µM.

On to `O=C(Oc1ccc2cc(Br)ccc2c1)c1ccncc1`, for which the IC50 was > 40 µM (inactive).

Turning to `CCc1noc(-c2ccn3c(CC(=O)Nc4ccccc4C)nnc3c2)n1`, the IC50 was 8 µM.

Take `Cc1ccccc1NC(=O)N1CCC(CC(=O)N2CCCCC2)CC1`: the IC50 is > 40 µM (inactive).

Consider `O=C(c1cc(S(=O)(=O)Nc2ccc(Cl)cc2)ccc1Cl)N1CCCc2ccccc21`, for which the IC50 is > 40 µM (inactive).

Regarding `O=C(Nc1cccc([N+](=O)[O-])c1)Nc1ccc2snnc2c1`, the IC50 is > 40 µM (inactive).

As to `Cc1noc(-c2ccnc(-n3cnc(C(=O)NCC4CC4)c3)c2)n1`, the IC50 was > 40 µM (inactive).

Take `COc1ccccc1C(=O)N1CCC[C@H](Cn2nnc(-c3cccnc3)n2)C1`: the IC50 is > 40 µM (inactive).

On to `O=C(c1ccccn1)N1CCC2(CC1)CC1(CO2)Nc2ccccc2-n2cccc21` (stereo unspecified), for which the IC50 was > 40 µM (inactive).

With `COc1ccc(C)cc1NC(=O)CN1C(=O)C2CCCC2=Nc2ccccc21` (stereo unspecified), the IC50 is > 40 µM (inactive).

With `Cc1ccc(Cn2c(C(=O)O)c(CNCc3ccco3)c3ccccc32)cc1`, the IC50 was > 40 µM (inactive).

Consider `O=C(NCC1(c2ccccc2)CCC1)c1nc2n(n1)-c1ccccc1S(=O)(=O)N2`, for which the IC50 is 12.8 µM.

As for `COc1cccc(-n2cnc3cc(C(=O)NCCc4ccccc4)ccc3c2=O)c1`, the IC50 was 19.8 µM.

As for `CCCCN1CC(C(=O)Nc2ccc(C(=O)Nc3ccc(C(N)=O)cc3)cc2)CC1=O` (stereo unspecified), the IC50 is > 40 µM (inactive).

As to `COc1cccc(NC(=O)CCc2nnc3n(CCCOC(C)C)c(=O)c4ccccc4n23)c1`, the IC50 is > 40 µM (inactive).

Regarding `CC1=CC(=O)C(C2=C(O)C(=O)C(C)=CC2=O)=C(O)C1=O`, the IC50 is 12 µM.

`O=C(Cn1c(=O)n(CCC(=O)N2CCc3ccccc3C2)c(=O)c2ccccc21)NCc1ccccc1Cl`: the IC50 is > 40 µM (inactive).

For `COc1ccc(CC(=O)Nc2ccccc2-c2nc3ccccc3[nH]2)cc1OC`, the half-maximal inhibitory concentration (IC50) is 36.7 µM.

With `CC(C)NC(=O)Cn1ccn2nc(-c3ccc(Cl)cc3)cc2c1=O`, the IC50 is > 40 µM (inactive).

As to `Cc1ccccc1-c1noc(-c2cn(Cc3ccc(NC(=O)Cc4ccccc4)cc3)cn2)n1`, the IC50 is > 40 µM (inactive).

Turning to `CC1OC2CC(O)C1(O)C1=C2C(O)=C(C(N)=O)C(=N)C1=O` (stereo unspecified), the IC50 was 7.46 µM.

Take `COc1ccc(/C=C/C(=O)Nc2cccc(S(=O)(=O)Nc3ccccc3Cl)c2)c(OC)c1`: the IC50 is 15 µM.

Regarding `O=C(Nc1ccccc1)[C@@H]1[C@@H]2C(=O)N(c3ccc([N+](=O)[O-])cc3)C(=O)[C@@H]2[C@H]2c3ccccc3C=CN12`, the IC50 is > 40 µM (inactive).

On to `Cn1cc2cccc(NC(=O)c3ccc(F)cc3)c2n1`, for which the IC50 is > 40 µM (inactive).

For the compound `O=C(c1cc2occc2c(Nc2ccc(F)cc2)n1)N1CCN(c2ccccc2)CC1`, the IC50 was > 40 µM (inactive).

As to `O=c1cc(-c2ccc(O)c(O)c2)oc2cc(O[C@@H]3O[C@H](CO)[C@@H](O)[C@H](O)[C@H]3O)cc(O)c12`, the IC50 was 1.75 µM.

`Cc1ccc(C(=O)NC(C)c2ccccc2)cc1NC(=O)c1nsc2ccccc12` (stereo unspecified): the IC50 was 27.9 µM.

Consider `Cn1c(O)c(C2=Nc3ccccc3SC(c3cccc(O)c3)C2)c(=O)[nH]c1=O` (stereo unspecified), for which the IC50 is > 40 µM (inactive).

Regarding `Cc1cc(C(=O)CSc2nc3ccccc3[nH]2)c(C)n1Cc1ccco1`, the IC50 is > 40 µM (inactive).

On to `O=C(c1cnc2[nH][nH]c(=O)c2c1)c1cc(Cl)cc(Cl)c1O`, for which the IC50 was 5.78 µM.

For the compound `COc1ccccc1-c1nc(-c2cn(-c3cccc(Cl)c3)nn2)no1`, the IC50 is 25.6 µM.

On to `O=C(COc1ccc(N2CC(C(=O)NCc3ccc4c(c3)OCO4)CC2=O)cc1)Nc1ccc(Cl)cc1` (stereo unspecified), for which the IC50 was 11.8 µM.

On to `COc1ccccc1CN1CCC(c2cc(=O)[nH]c(-c3cccnc3)n2)CC1`, for which the IC50 was > 40 µM (inactive).

As for `Cc1cc(N2CCN(c3ncccn3)CC2)nc2ccc(NC(=O)c3ccncc3)cc12`, the IC50 is > 40 µM (inactive).

Regarding `CCCCCCCCCC(CCCCCCCCCC(=O)O)O[C@H]1O[C@@H](COC(C)=O)[C@H](O)[C@@H](O)[C@H]1OC(=O)CC(=O)O` (stereo partly specified), the IC50 was 29.4 µM.

On to `Cc1ccccc1NC(=O)Cn1ccc2ccn(Cc3ccccc3)c2c1=O`, for which the IC50 was > 40 µM (inactive).

As for `COc1cc(OC)c(NC(=O)Cn2c(=O)n(Cc3ccccc3Cl)c(=O)c3cc(OC)c(OC)cc32)cc1Cl`, the IC50 is > 40 µM (inactive).

`COc1cc(CC(=O)Nc2ccccc2N2CCOCC2)cc(OC)c1OC`: the IC50 was > 40 µM (inactive).

For `Nc1c(C(=O)NCc2ccc3c(c2)OCO3)nnn1Cc1ccc(Br)cc1F`, the IC50 is 18.4 µM.

On to `CCCCCC(=O)C(CCCC)c1oc(=O)c(CCCC)c(O)c1CCCC` (stereo unspecified), for which the IC50 is 31 µM.

For the compound `O=C(CC1C(=O)N(C2CCCC2)c2nc3ccccc3n21)Nc1ccccc1` (stereo unspecified), the IC50 was > 40 µM (inactive).

With `NC(=O)c1ccccc1NC(=O)COc1ccc2c(c1)oc(=O)c1ccccc12`, the IC50 was 5.75 µM.

As for `CCOc1ccc(CC(=O)Nc2ccc(-c3cn4cccnc4n3)cc2)cc1`, the IC50 is > 40 µM (inactive).

As for `COC(=O)c1ccc2c(=O)n(-c3ccc(C)c(F)c3)c(N3CCC(C(N)=O)CC3)nc2c1`, the IC50 is > 40 µM (inactive).

As to `COc1ccc(NC(=O)[C@H](C)NC(=O)c2cc3c(OC)cccc3[nH]2)cc1Cl`, the IC50 is 37.9 µM.

As for `O=C(Cn1c(-c2nc(-c3cccc(F)c3)no2)cccc1=O)NCc1ccco1`, the IC50 was > 40 µM (inactive).

With `COc1ccc(-c2cc(-c3ccc(F)cc3)[nH]c(=O)c2C#N)cc1`, the IC50 is 18.3 µM.

With `Cc1nnc(NC(=O)C2CC(=O)N(CCc3ccc(F)cc3)C2)s1` (stereo unspecified), the IC50 is > 40 µM (inactive).

For the compound `O=C(c1cccnc1)N1CCN(c2cc(-c3ccccc3)[nH]n2)CC1`, the IC50 was > 40 µM (inactive).

`COc1cccc(-c2cc(C(=O)Nc3cc(C)n(Cc4ccc(Cl)cc4)n3)no2)c1`: the IC50 was > 40 µM (inactive).

Regarding `COc1ccc(CCNC(=O)Cn2c(=O)n(-c3ccc(CC(=O)NCCc4ccccc4)cc3)c(=O)c3ccccc32)cc1OC`, the IC50 is > 40 µM (inactive).

Turning to `Cn1nc(C(=O)N2CCC(c3ccccc3)C2)c2c1-c1ccsc1CC2` (stereo unspecified), the IC50 was > 40 µM (inactive).

For `Cc1ccc2[nH]cc(S(=O)(=O)c3cc(F)cc(F)c3)c(=O)c2c1`, the IC50 was > 40 µM (inactive).

For the compound `CCc1cc(=O)oc2c(C)c(OCC(=O)NCc3ccccn3)ccc12`, the IC50 is > 40 µM (inactive).

For `COc1ccc(Cn2c(=O)[nH]c3cc(C(=O)NCCCN4CCN(c5cccc(Cl)c5)CC4)ccc3c2=O)cc1`, the IC50 was > 40 µM (inactive).

`CC(C)CCCCCCCCCCC(=O)N(C)[C@H](CO)C(=O)N[C@H](C)C(=O)NCC(=O)N(C)C1C(=O)N[C@@H](C)C(=O)NC(C(=O)O)Cc2ccc(O)c(c2)-c2cc1ccc2O` (stereo partly specified): the IC50 is 34.4 µM.

`COc1ccccc1-c1nc(-c2cn(-c3ccc(F)cc3)nn2)no1`: the IC50 was 15.6 µM.

On to `Cc1ccc(-c2nn(C(C)(C)C)c3ncnc(NS(=O)(=O)c4ccc(Cl)cc4)c23)cc1`, for which the IC50 was > 40 µM (inactive).

Take `CC1=C(C)C(N(c2ccccc2)c2ccccc2)N(CCC(C)C)C1=O` (stereo unspecified): the IC50 is > 40 µM (inactive).

For `Cc1cc(-c2nnc(SCC(=O)Nc3ccc(Br)c(C)c3)n2N)n[nH]1`, the IC50 is > 40 µM (inactive).

With `O=C(NC1CCCC1)C1CC(=O)N(c2cccc(-c3noc(-c4cccs4)n3)c2)C1` (stereo unspecified), the IC50 is > 40 µM (inactive).

For `CCOc1ccc(CCNC(=O)Cn2c(-c3ccc(F)cc3)cc(C(C)=O)c2C)cc1OCC`, the IC50 was > 40 µM (inactive).

As for `Cc1c(-c2nsc(NC(=O)c3ccc(Cl)cc3)n2)nnn1-c1ccccc1F`, the IC50 was 15.7 µM.

On to `Cc1cc(C(=O)Nc2cc([N+](=O)[O-])cc3oc(-c4ccccc4)cc23)on1`, for which the IC50 was > 40 µM (inactive).

In the case of `COC(=O)c1ccc(N2CCN(C(C)=O)CC2)c(NC(=O)COc2ccc([N+](=O)[O-])cc2)c1`, the IC50 was 25.1 µM.

On to `O=C(CCCc1nnc2c(=O)n(-c3cccc(F)c3)ccn12)Nc1ccccc1`, for which the IC50 is > 40 µM (inactive).

For the compound `c1cncc(-c2cnc3sc(NCc4ccc5c(c4)OCO5)nn23)c1`, the IC50 is > 40 µM (inactive).

`CCc1ccc(NC(=O)C(C)OC(=O)/C=C/c2ccc(S(=O)(=O)Nc3cccc(S(N)(=O)=O)c3)cc2)cc1` (stereo unspecified): the IC50 was 21.7 µM.

As for `COC(=O)c1c(OC)cc2c(c1C)Oc1c(Cl)c(O)c(Cl)c(C)c1C(=O)O2`, the IC50 is 17.3 µM.

With `O=c1[nH]c(C2CCN(S(=O)(=O)c3ccc(S(=O)(=O)NC4CCCCC4)cc3)CC2)nc2c1nnn2Cc1ccc(F)cc1`, the IC50 is 21.9 µM.

Turning to `O=S(=O)(c1ccccc1Cl)N1CCN(c2ccc3nnc(-c4ccco4)n3n2)CC1`, the IC50 was > 40 µM (inactive).

As for `CCc1cccc(CC)c1NC(=O)COC(=O)c1cc2cccc(OC)c2oc1=O`, the IC50 was > 40 µM (inactive).

For the compound `COc1ccccc1/C=C/C(=O)NC(Cc1ccccc1)c1nc2ccccc2[nH]1` (stereo unspecified), the IC50 is > 40 µM (inactive).

`O=C(COc1ccc(Cl)cc1)Nc1noc(-c2cccs2)n1`: the IC50 was > 40 µM (inactive).

For `Cc1ccc(NC(=O)c2cc(-c3ccncc3)n[nH]2)cc1Cl`, the IC50 was > 40 µM (inactive).

Take `COc1cc(Cl)c(NC(=O)c2cc(-c3ccccn3)n[nH]2)c(OC)c1`: the IC50 is > 40 µM (inactive).

Usually IC50 stands for the midpoint of a concentration-inhibition curve.
